From ChEMBL document CHEMBL4680265, “Anti-tubulin agent vinorelbine inhibits metastasis of cancer cells by regulating epithelial-mesenchymal transition” (Eur J Med Chem, 2020)
Active and inactive are the calls of the source. No cut-off for these calls is given here.

Assays:
NCI-H1975 [1] = assay: Inhibition of epithelial-mesenchymal transition in human NCI-H1975 cells assessed as downregulation of MMP-9 by Western blot analysis; assay type: functional, cell-based; conditions: dose 1-100 nM
NCI-H1975 [2] = assay: Induction of cell cycle arrest in human NCI-H1975 cells assessed as decrease in cyclin B1 level at 1 to 100 nM incubated for 24 hrs by Western blot analysis; assay type: functional, cell-based; conditions: dose 1-100 nM
HepG2 [3] = assay: Induction of cell cycle arrest in human HepG2 cells assessed as increase in G2/M phase accumulation at 0.1 to 10 uM incubated for 24 hrs by propidium iodide staining based flow cytometry analysis; assay type: functional; conditions: dose 0.1-10 µM
HepG2 [4] = assay: Induction of apoptosis in human HepG2 cells assessed as increase in Bax expression at 0.1 to 10 uM incubated for 48 hrs by Western blot analysis; assay type: functional, cell-based; conditions: dose 0.1-10 µM
NCI-H1975 [5] = assay: Antimigratory activity against human NCI-H1975 cells assessed as reduction in migration at 1 nM measured after 96 hrs by scratch wound healing based inverted microscopic analysis relative to control; assay type: functional
HepG2 [6] = assay: Inhibition of epithelial-mesenchymal transition in human HepG2 cells assessed as decrease in N-cadherin expression at 0.1 to 10 uM by Western blot analysis; assay type: functional, cell-based; conditions: dose 0.1-10 µM
HCT-116 [7] = assay: Inhibition of epithelial-mesenchymal transition in human HCT-116 cells assessed as increase in E-cadherin expression at 0.01 to 1 uM by Western blot analysis; assay type: functional, cell-based; conditions: dose 0.01-1 µM
HCT-116 [8] = assay: Antiinvasive activity against human HCT-116 cells assessed as reduction in invasion at 1 to 10 nM measured after 48 hrs by DAPI staining based transwell assay; assay type: functional, cell-based; conditions: dose 1-10 nM
HepG2 [9] = assay: Inhibition of epithelial-mesenchymal transition in human HepG2 cells assessed as […] in E-cadherin expression at 0.1 to 10 uM by Western blot analysis; assay type: functional, cell-based; conditions: dose 0.1-10 µM
NCI-H1975 [10] = assay: Inhibition of epithelial-mesenchymal transition in human NCI-H1975 cells assessed as downregulation of Snail-1 by Western blot analysis; assay type: functional, cell-based; conditions: dose 1-100 nM
HepG2 [11] = assay: Antimigratory activity against human HepG2 cells assessed as reduction in migration at 10 nM measured after 96 hrs by scratch wound healing based inverted microscopic analysis relative to control; assay type: functional
NCI-H1975 [12] = assay: Induction of apoptosis in human NCI-H1975 cells assessed as increase in late apoptotic cells at 1 to 100 nM incubated for 48 hrs by annexin V-FITC and PI staining based flow cytometry analysis; assay type: functional, cell-based; conditions: dose 1-100 nM
NCI-H1975 [13] = assay: Induction of apoptosis in human NCI-H1975 cells assessed as increase in early apoptotic cells at 1 to 100 nM incubated for 48 hrs by annexin V-FITC and PI staining based flow cytometry analysis; assay type: functional, cell-based; conditions: dose 1-100 nM
NCI-H1975 [14] = assay: Cytotoxicity against human NCI-H1975 cells assessed as reduction in cell viability incubated for 48 hrs by MTT assay; assay type: functional, cell-based; conditions: NCI-H1975, 48 h
NCI-H1975 [15] = assay: Induction of cell cycle arrest in human NCI-H1975 cells assessed as increase in G2/M phase accumulation at 10 nM incubated for 24 hrs by propidium iodide staining based flow cytometry analysis relative to control; assay type: functional
HepG2 [16] = assay: Antimigratory activity against human HepG2 cells assessed as reduction in migration at 1 nM measured after 96 hrs by scratch wound healing based inverted microscopic analysis relative to control; assay type: functional
HepG2 [17] = assay: Induction of apoptosis in human HepG2 cells assessed as decrease in Bcl-2 expression at 0.1 to 10 uM incubated for 48 hrs by Western blot analysis; assay type: functional, cell-based; conditions: dose 0.1-10 µM
HCT-116 [18] = assay: Inhibition of epithelial-mesenchymal transition in human HCT-116 cells assessed as downregulation of MMP-9 by Western blot analysis; assay type: functional, cell-based; conditions: dose 0.01-1 µM
NCI-H1975 [19] = assay: Induction of apoptosis in human NCI-H1975 cells assessed as decrease in Bcl-2 expression at 1 to 100 nM incubated for 48 hrs by Western blot analysis; assay type: functional, cell-based; conditions: dose 1-100 nM
HCT-116 [20] = assay: Antimigratory activity against human HCT-116 cells assessed as reduction in migration at 5 nM measured after 96 hrs by scratch wound healing based inverted microscopic analysis relative to control; assay type: functional
NCI-H1975 [21] = assay: Cytotoxicity against human NCI-H1975 cells assessed as effect on cell morphology incubated for 48 hrs by DAPI staining based fluorescence microscopy; assay type: functional; conditions: dose 1-100 nM
NCI-H1975 [22] = assay: Antimigratory activity against human NCI-H1975 cells assessed as reduction in migration at 5 nM measured after 96 hrs by scratch wound healing based inverted microscopic analysis relative to control; assay type: functional
NCI-H1975 [23] = assay: Antimigratory activity against human NCI-H1975 cells assessed as reduction in migration at 10 nM measured after 96 hrs by scratch wound healing based inverted microscopic analysis relative to control; assay type: functional
NCI-H1975 [24] = assay: Induction of cell cycle arrest in human NCI-H1975 cells assessed as increase in G2/M phase accumulation at 1 nM incubated for 24 hrs by propidium iodide staining based flow cytometry analysis relative to control; assay type: functional
HepG2 [25] = assay: Cytotoxicity against human HepG2 cells assessed as reduction in cell viability incubated for 48 hrs by MTT assay; assay type: functional, cell-based; conditions: HepG2, 48 h
HepG2 [26] = assay: Antimigratory activity against human HepG2 cells assessed as reduction in migration at 0.1 nM measured after 96 hrs by scratch wound healing based inverted microscopic analysis relative to control; assay type: functional
NCI-H1975 [27] = assay: Inhibition of colony formation in human NCI-H1975 cells at 1 to 100 nM incubated for 3 to 4 days by crystal violet staining based assay; assay type: functional, cell-based; conditions: dose 1-100 nM, time 3-4 day
HCT-116 [28] = assay: Induction of cell cycle arrest in human HCT-116 cells assessed as decrease in cyclin B1 level at 0.01 to 1 uM incubated for 24 hrs by Western blot analysis; assay type: functional, cell-based; conditions: dose 0.01-1 µM
HCT-116 [29] = assay: Inhibition of epithelial-mesenchymal transition in human HCT-116 cells assessed as decrease in Vimentin expression at 0.01 to 1 uM by Western blot analysis; assay type: functional, cell-based; conditions: dose 0.01-1 µM
NCI-H1975 [30] = assay: Induction of cell cycle arrest in human NCI-H1975 cells assessed as increase in G2/M phase accumulation at 100 nM incubated for 24 hrs by propidium iodide staining based flow cytometry analysis relative to control; assay type: functional

CCC1=C[C@@H]2CN(C1)Cc1c([nH]c3ccccc13)[C@@](C(=O)OC)(c1cc3c(cc1OC)N(C)[C@H]1[C@@](O)(C(=O)OC)[C@H](OC(C)=O)[C@]4(CC)C=CCN5CC[C@]31[C@@H]54)C2 [VINORELBINE] was tested, and the inhibition (NCI-H1975 [1]) was “Dose-dependent effect”, the Activity (NCI-H1975 [2]) was “Active” and the Activity (HepG2 [3]) was “Active”. For the same compound, the Activity (HepG2 [4]) was “Active”, the inhibition at 0.001 µM (NCI-H1975 [5]) was 0.7% and the inhibition (HepG2 [6]) was “Active”. For the same compound, the inhibition (HCT-116 [7]) was “Active”, the inhibition (HCT-116 [8]) was “Active” and the inhibition (HepG2 [9]) was “inactive”. The inhibition (NCI-H1975 [10]) was “Dose-dependent effect”, the inhibition at 0.01 µM (HepG2 [11]) was 47.4% and the Activity (NCI-H1975 [12]) was “Active”. The Activity (NCI-H1975 [13]) was “Active”, the IC50 (NCI-H1975 [14]) was 0.008 µM and the Activity (NCI-H1975 [15]) was 34.31%. For the same compound, the inhibition at 0.001 µM (HepG2 [16]) was 33.1%, the Activity (HepG2 [17]) was “Active” and the inhibition (HCT-116 [18]) was “Dose-dependent effect”. For the same compound, the Activity (NCI-H1975 [19]) was “Active”, the inhibition at 0.005 µM (HCT-116 [20]) was 28.5% and the Activity (NCI-H1975 [21]) was “Dose-dependent effect”. It also gave an inhibition at 0.005 µM (NCI-H1975 [22]) of 52.6%, an inhibition at 0.01 µM (NCI-H1975 [23]) of 70.5% and an Activity (NCI-H1975 [24]) of 17.39%. For the same compound, the IC50 (HepG2 [25]) was 0.11 µM, the inhibition at 0.0001 µM (HepG2 [26]) was 11.7% and the inhibition (NCI-H1975 [27]) was “Active”. For the same compound, the Activity (HCT-116 [28]) was “inactive”, the inhibition (HCT-116 [29]) was “inactive” and the Activity (NCI-H1975 [30]) was 51.85%.
